Measured values reported in ChEMBL document CHEMBL1149949, “Nonpeptidic HIV protease inhibitors: 3-(S-benzyl substituted)-4-hydroxy-6-(phenyl substituted)-2H-pyran-2-one with an inverse mode of binding” (Bioorg Med Chem Lett, 1996).

Molecular target: Human immunodeficiency virus type 1 protease (Human immunodeficiency virus 1, UniProt Q72874)
Test: In vitro inhibitory activity against HIV-1 protease(PR).

In the case of `Cc1ccc(CSc2c(O)cc(-c3ccccc3)oc2=O)cc1`, the IC50 is reported as 4.58 µM.

Compound `COc1ccc(-c2cc(O)c(SCc3ccccc3)c(=O)o2)cc1C` has an IC50 of 0.74 µM.

`O=c1cc(-c2ccccc2)oc(O)c1SCc1ccc2c(c1)OCCO2` was tested, and the IC50 was 3.42 µM.

For `COC(=O)c1cccc(CSc2c(O)cc(-c3ccccc3)oc2=O)c1`, the IC50 was 19.3 µM.

`Cc1cc(-c2cc(O)c(SCc3ccccc3)c(=O)o2)cc(C)c1O` was tested, and the IC50 was 0.25 µM.

`COC(=O)c1ccc(CSc2c(O)cc(-c3ccccc3)oc2=O)cc1` was tested, and the IC50 was > 10 µM.

In the case of `O=c1cc(-c2ccc3c(c2)OCCO3)oc(O)c1SCc1ccccc1`, the IC50 is reported as 0.79 µM.

In the case of `O=C(OC1CCCC1)c1ccccc1CSc1c(O)oc(-c2ccccc2)cc1=O`, the IC50 is reported as 0.05 µM.

With `O=c1cc(-c2ccccc2O)oc(O)c1SCc1ccccc1` the IC50 was 6 µM.

`O=C(O)c1ccccc1CSc1c(O)cc(-c2ccccc2)oc1=O` showed an IC50 of 24.8 µM.

`O=c1cc(-c2ccc(O)cc2)oc(O)c1SCc1ccccc1` gave an IC50 of 0.69 µM.

`Cc1ccccc1-c1cc(O)c(SCc2ccccc2)c(=O)o1` showed an IC50 of 14.2 µM.

`O=c1cc(-c2ccccc2Cl)oc(O)c1SCc1ccccc1` gave an IC50 of 2.54 µM.

In the case of `Cc1cc(C)cc(-c2cc(O)c(SCc3ccccc3)c(=O)o2)c1`, the IC50 is reported as 0.26 µM.

For `O=c1cc(-c2cccc(Cl)c2)oc(O)c1SCc1ccccc1`, the IC50 was 0.69 µM.

Compound `Cc1cccc(-c2cc(O)c(SCc3ccccc3)c(=O)o2)c1` has an IC50 of 0.86 µM.

With `COc1cccc(-c2cc(O)c(SCc3ccccc3)c(=O)o2)c1` the IC50 was 0.99 µM.

Work on `O=C(O)c1cccc(CSc2c(O)cc(-c3ccccc3)oc2=O)c1` yielded an IC50 of 6.15 µM.

Compound `O=C(O)c1ccc(-c2cc(O)c(SCc3ccccc3)c(=O)o2)cc1` has an IC50 of 0.36 µM.

For `O=C(OC1CCCCC1)c1ccccc1CSc1c(O)oc(-c2ccccc2)cc1=O`, the IC50 was 1.2 µM.

`O=c1cc(-c2ccccc2)oc(O)c1SCc1ccccc1` gave an IC50 of 1.7 µM.

With `Cc1ccc(-c2cc(O)c(SCc3ccccc3)c(=O)o2)cc1` the IC50 was 12.3 µM.

`COC(=O)c1ccccc1CSc1c(O)cc(-c2ccccc2)oc1=O` showed an IC50 of 1 µM.

Compound `Cc1cccc(CSc2c(O)cc(-c3ccccc3)oc2=O)c1` has an IC50 of 8.54 µM.

`COC(=O)c1ccc(-c2cc(O)c(SCc3ccccc3)c(=O)o2)cc1` was tested, and the IC50 was > 100 µM.

`CC(C)(C)NC(=O)c1ccccc1CSc1c(O)cc(-c2ccccc2)oc1=O` showed an IC50 of 0.19 µM.

`O=c1cc(-c2cccc(O)c2)oc(O)c1SCc1ccccc1` gave an IC50 of 1.19 µM.

Compound `CC(C)COC(=O)c1ccccc1CSc1c(O)cc(-c2ccccc2)oc1=O` has an IC50 of 0.619 µM.

`CCc1cccc(-c2cc(O)c(SCc3ccccc3)c(=O)o2)c1` was tested, and the IC50 was 2.04 µM.

With `COc1ccc(-c2cc(O)c(SCc3ccccc3)c(=O)o2)cc1` the IC50 was 1.63 µM.

`O=c1cc(-c2cc(C(F)(F)F)cc(C(F)(F)F)c2)oc(O)c1SCc1ccccc1` showed an IC50 of 0.63 µM.

In the case of `CC(C)OC(=O)c1ccccc1CSc1c(O)cc(-c2ccccc2)oc1=O`, the IC50 is reported as 0.034 µM.

`O=c1cc(-c2cccc(C(F)(F)F)c2)oc(O)c1SCc1ccccc1` showed an IC50 of 0.6 µM.

Work on `Cc1ccccc1CSc1c(O)cc(-c2ccccc2)oc1=O` yielded an IC50 of 5.37 µM.

`O=C(O)c1ccc(CSc2c(O)cc(-c3ccccc3)oc2=O)cc1` showed an IC50 of 10.2 µM.

Compound `O=c1cc(-c2cccc(OC(F)(F)F)c2)oc(O)c1SCc1ccccc1` has an IC50 of 2.14 µM.
